PubChem BioAssay (NCI)
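Growth conditions: 96-well plates. Treatment: test compound, 48 hours, 5 concentrations. Analysis: linear interpolation between bracketing concentrations; unreached endpoints set to highest concentration. GI50: concentration for 50% inhibition of growth. TGI denotes the concentration required for complete inhibition of growth.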

Columns and labels:
Experiment in all cases: NCI anticancer screen, dose series, 48 h
[1] = test system: HCC-2998 colon
[2] = test system: MALME-3M melanoma
[3] = test system: MCF7 breast
[4] = test system: UACC-62 melanoma
[5] = test system: U251 CNS
[6] = test system: ACHN renal
[7] = test system: SF-295 CNS
[8] = test system: SK-OV-3 ovarian
[9] = test system: COLO 205 colon
[10] = test system: M14 melanoma
[11] = test system: RPMI-8226 leukemia
[12] = test system: CAKI-1 renal
[13] = test system: IGROV1 ovarian
[14] = test system: NCI-H522 lung
[15] = test system: A498 renal
[16] = test system: HOP-62 NSCLC
[17] = test system: EKVX NSCLC
[18] = test system: SK-MEL-28 melanoma
[19] = test system: SF-539 CNS
[20] = test system: OVCAR-3 ovarian
[21] = test system: MOLT-4 leukemia
[22] = test system: HT29 colon
[23] = test system: KM12 colon
[24] = test system: DU-145 prostate
[25] = test system: NCI-H460 lung
[26] = test system: BT-549 breast
[27] = test system: OVCAR-5 ovarian
[28] = test system: HCT-116 colon
[29] = test system: NCI-H226 lung
[30] = test system: UO-31 renal
[31] = test system: T-47D breast
[32] = test system: OVCAR-4 ovarian
[33] = test system: SK-MEL-2 melanoma
[34] = test system: SK-MEL-5 melanoma
[35] = test system: K-562 leukemia
[36] = test system: NCI/ADR-RES ovarian
[37] = test system: HCT-15 colon
[38] = test system: MDA-MB-231 breast
[39] = test system: SNB-19 CNS
[40] = test system: UACC-257 melanoma
[41] = test system: MDA-MB-468 breast
[42] = test system: 786-0 renal
[43] = test system: MDA-MB-435
[44] = test system: HOP-92 NSCLC
[45] = test system: SNB-75 CNS
[46] = test system: A549 NSCLC
[47] = test system: NCI-H23 lung
[48] = test system: SW-620 colon
[49] = test system: HS 578T breast
[50] = test system: RXF 393 renal
[51] = test system: SN12C renal
[52] = test system: HL-60(TB) leukemia
[53] = test system: SR leukemia
[54] = test system: OVCAR-8 ovarian
[55] = test system: CCRF-CEM leukemia
[56] = test system: SF-268 CNS
[57] = test system: LOX IMVI melanoma
[58] = test system: TK-10 renal
[59] = test system: PC-3 prostate

O=c1cc(-c2ccccc2)oc2cc(OCCCC[P+](c3ccccc3)(c3ccccc3)c3ccccc3)cc(O)c12
GI50 [1]: 0.412 µM
TGI [1]: 1.54 µM
GI50 [2]: 0.397 µM
TGI [2]: 1.19 µM
GI50 [3]: 0.499 µM
TGI [3]: 2.28 µM
GI50 [4]: 0.573 µM
TGI [4]: 1.56 µM
GI50 [5]: 0.716 µM
TGI [5]: 2.16 µM
GI50 [6]: 0.996 µM
TGI [6]: 2.39 µM
GI50 [7]: 1.41 µM
TGI [7]: 2.76 µM
GI50 [8]: 0.728 µM
TGI [8]: 1.92 µM
GI50 [9]: 1.47 µM
TGI [9]: 3.01 µM
GI50 [10]: 0.408 µM
TGI [10]: 1.54 µM
GI50 [11]: 0.303 µM
TGI [11]: 1.82 µM
GI50 [12]: 1.63 µM
TGI [12]: 4.34 µM
GI50 [13]: 0.785 µM
TGI [13]: 2.36 µM
GI50 [14]: 0.789 µM
TGI [14]: 2.54 µM
GI50 [15]: 2.03 µM
TGI [15]: 5.59 µM
GI50 [16]: 1.42 µM
TGI [16]: 2.87 µM
GI50 [17]: 0.494 µM
TGI [17]: 1.86 µM
GI50 [18]: 0.601 µM
TGI [18]: 1.83 µM
GI50 [19]: 0.892 µM
TGI [19]: 2.15 µM
GI50 [20]: 0.526 µM
TGI [20]: 2.22 µM
GI50 [21]: 0.771 µM
TGI [21]: 3.24 µM
GI50 [22]: 2.6 µM
TGI [22]: 11.3 µM
GI50 [23]: 0.738 µM
TGI [23]: 2.13 µM
GI50 [24]: 0.813 µM
TGI [24]: 2.97 µM
GI50 [25]: 0.509 µM
TGI [25]: 1.81 µM
GI50 [26]: 0.542 µM
TGI [26]: 1.74 µM
GI50 [27]: 1.58 µM
TGI [27]: 5.11 µM
GI50 [28]: 0.863 µM
TGI [28]: 2.12 µM
GI50 [29]: 1.5 µM
TGI [29]: 4.2 µM
GI50 [30]: 1.39 µM
TGI [30]: 2.89 µM
GI50 [31]: 0.273 µM
TGI [31]: 2.77 µM
GI50 [32]: 0.549 µM
TGI [32]: 6.76 µM
GI50 [33]: 0.238 µM
TGI [33]: 0.603 µM
GI50 [34]: 0.276 µM
TGI [34]: 0.693 µM
GI50 [35]: 0.326 µM
TGI [35]: > 100 µM
GI50 [36]: 3.29 µM
TGI [36]: > 100 µM
GI50 [37]: 1.02 µM
TGI [37]: 2.48 µM
GI50 [38]: 1.07 µM
TGI [38]: 2.57 µM
GI50 [39]: 0.41 µM
TGI [39]: 1.42 µM
GI50 [40]: 0.548 µM
TGI [40]: 1.9 µM
GI50 [41]: 0.148 µM
TGI [41]: 0.433 µM
GI50 [42]: 1.86 µM
TGI [42]: 3.84 µM
GI50 [43]: 0.356 µM
TGI [43]: 1.39 µM
GI50 [44]: 0.292 µM
TGI [44]: 1.13 µM
GI50 [45]: 0.419 µM
TGI [45]: 1.68 µM
GI50 [46]: 2.82 µM
TGI [46]: 16.5 µM
GI50 [47]: 1.1 µM
TGI [47]: 2.74 µM
GI50 [48]: 0.997 µM
TGI [48]: 2.67 µM
GI50 [49]: 1.32 µM
TGI [49]: 4.27 µM
GI50 [50]: 0.707 µM
TGI [50]: 2.15 µM
GI50 [51]: 0.603 µM
TGI [51]: 1.66 µM
GI50 [52]: 0.246 µM
TGI [52]: 1.82 µM
GI50 [53]: 0.834 µM
TGI [53]: > 100 µM
GI50 [54]: 1.04 µM
TGI [54]: 6.1 µM
GI50 [55]: 0.826 µM
TGI [55]: 4.75 µM
GI50 [56]: 1.29 µM
TGI [56]: 3.56 µM
GI50 [57]: 1.13 µM
TGI [57]: 2.36 µM
GI50 [58]: 0.903 µM
TGI [58]: 3.27 µM
GI50 [59]: 0.899 µM
TGI [59]: 2.7 µM

Cc1ccccc1[C@H]1C(C(=O)c2ccc(Cl)cc2)C2(N[C@@H]1c1ccccc1)C(=O)Nc1ccccc12 (some centres undefined)
GI50 [1]: 5.95 µM
TGI [1]: 12.2 µM
GI50 [2]: 6 µM
TGI [2]: 11.6 µM
GI50 [3]: 2.26 µM
TGI [3]: 12.4 µM
GI50 [4]: 2.78 µM
TGI [4]: 8.48 µM
GI50 [5]: 5.56 µM
TGI [5]: 13.1 µM
GI50 [6]: 6.46 µM
TGI [6]: 14.8 µM
GI50 [7]: 5.3 µM
TGI [7]: 13.2 µM
GI50 [8]: 7.41 µM
TGI [8]: 31.5 µM
GI50 [9]: 7.31 µM
TGI [9]: 13.8 µM
GI50 [10]: 5.62 µM
TGI [10]: 11.7 µM
GI50 [11]: 7.66 µM
TGI [11]: 28.3 µM
GI50 [12]: 3.62 µM
TGI [12]: 11.6 µM
GI50 [13]: 5.63 µM
TGI [13]: 14 µM
GI50 [14]: 4.46 µM
TGI [14]: 11.5 µM
GI50 [15]: 6.77 µM
TGI [15]: 12.9 µM
GI50 [16]: 6.26 µM
TGI [16]: 13 µM
GI50 [17]: 4.96 µM
TGI [17]: 17.2 µM
GI50 [18]: 5.91 µM
TGI [18]: 11.7 µM
GI50 [19]: 6.95 µM
TGI [19]: 13.6 µM
GI50 [20]: 1.64 µM
TGI [20]: 7.17 µM
GI50 [21]: 4.14 µM
TGI [21]: 33 µM
GI50 [22]: 3.42 µM
TGI [22]: 11.4 µM
GI50 [23]: 6.73 µM
TGI [23]: 16.2 µM
GI50 [24]: 4.91 µM
TGI [24]: 12.8 µM
GI50 [25]: 6.15 µM
TGI [25]: 14.9 µM
GI50 [26]: 5.47 µM
TGI [26]: 11 µM
GI50 [27]: 4.37 µM
TGI [27]: 9.67 µM
GI50 [28]: 2.46 µM
TGI [28]: 8.7 µM
GI50 [29]: 5.91 µM
TGI [29]: 12.1 µM
GI50 [30]: 4.6 µM
TGI [30]: 10.8 µM
GI50 [31]: 4.91 µM
TGI [31]: 11.6 µM
GI50 [32]: 6.08 µM
TGI [32]: 16.2 µM
GI50 [33]: 5.83 µM
TGI [33]: 12.1 µM
GI50 [34]: 5.25 µM
TGI [34]: 10.6 µM
GI50 [35]: 5.11 µM
TGI [35]: 42.3 µM
GI50 [36]: 4.41 µM
TGI [36]: 10.8 µM
GI50 [37]: 5.11 µM
TGI [37]: 14.1 µM
GI50 [38]: 4.31 µM
TGI [38]: 9.35 µM
GI50 [39]: 8.35 µM
TGI [39]: 26.6 µM
GI50 [40]: 5.81 µM
TGI [40]: 15.3 µM
GI50 [41]: 0.957 µM
TGI [41]: 2.74 µM
GI50 [42]: 6.9 µM
TGI [42]: 16.3 µM
GI50 [43]: 3.65 µM
TGI [43]: 9.28 µM
GI50 [44]: 2.47 µM
TGI [44]: 8.55 µM
GI50 [45]: 2.63 µM
TGI [45]: 14.5 µM
GI50 [46]: 5.81 µM
TGI [46]: 20.4 µM
GI50 [47]: 5.67 µM
TGI [47]: 12.2 µM
GI50 [48]: 5.54 µM
TGI [48]: 13.8 µM
GI50 [49]: 4.76 µM
TGI [49]: 15.3 µM
GI50 [50]: 1.42 µM
TGI [50]: 6.02 µM
GI50 [51]: 4.92 µM
TGI [51]: 10.1 µM
GI50 [52]: 8.01 µM
TGI [52]: 30.4 µM
GI50 [54]: 6.05 µM
TGI [54]: 13.4 µM
GI50 [55]: 4.8 µM
TGI [55]: 26.8 µM
GI50 [56]: 5.73 µM
TGI [56]: 17.1 µM
GI50 [57]: 2.51 µM
TGI [57]: 7.97 µM
GI50 [58]: 6.86 µM
TGI [58]: 15.8 µM
GI50 [59]: 2.08 µM
TGI [59]: 10.5 µM
